Assay results published in ChEMBL document CHEMBL3301361, “Experimental in vitro DMPK and physicochemical data on a set of publicly disclosed compounds”.
In brackets after ≈: the same amount, converted by molar mass.

Experiment: physchem
Conditions: pH 7.4 buffer

Row | SMILES | solubility thermodynamic [µM]
1 | CN(C)S(=O)(=O)n1c2ccccc2c2cc(NC(=O)CCc3ccncc3)ccc21 | 9.5 (≈ 4.01 µg/mL)
2 | CN(C)CCSc1nc2ccc(Br)cc2cc1-c1ccccc1 | 9.5 (≈ 3.68 µg/mL)
3 | COc1cc2ncnc(Nc3ccc(Br)cc3F)c2cc1OC | 6.8 (≈ 2.57 µg/mL)
4 | Cc1ccc(C(=O)N2CCC(C(=O)c3c(C)cc(C)cc3C)CC2)cc1 | 9.3 (≈ 3.25 µg/mL)
5 | COc1ccc(NC(=O)c2cccn(CC=C(C)C)c2=O)cc1 | 7.2 (≈ 2.25 µg/mL)
6 | CCN1N=C(c2ccccc2)Cn2c1nc1ccccc12 | 6.9 (≈ 1.91 µg/mL)
7 | COC1=C(c2ccccc2)C(=O)c2ccccc2C1=O | 8.1 (≈ 2.14 µg/mL)
8 | O=C(NC1CCCC1)C1CCCN(S(=O)(=O)c2cccc3cccnc23)C1 (stereo unspecified) | 8.7 (≈ 3.37 µg/mL)
9 | N#Cc1c(C2CCCNC2)cc(-c2c(O)cccc2OCC2CC2)nc1N (stereo unspecified) | 8.1 (≈ 2.95 µg/mL)
10 | C=CCN(C(=O)NCc1cccc(C)c1)C1CCN(CCC(c2ccccc2)c2ccccc2)CC1 | 9.1 (≈ 4.38 µg/mL)
11 | COc1cc2ncnc(Nc3cc(NC(=O)c4ccccc4)ccc3Cl)c2cc1OC | 10 (≈ 4.35 µg/mL)
12 | Cc1cc(C)c(N2C(=O)CC(Sc3ccccc3N)C2=O)c(C)c1 (stereo unspecified) | 9.3 (≈ 3.17 µg/mL)
13 | Cc1nc(-c2ccc(CN3CCC(N(C)C(=O)Cc4ccc(-n5cnnn5)cc4)CC3)cc2)no1 | 10.2 (≈ 4.82 µg/mL)
14 | CN(C(=O)Cc1ccc(-n2cnnn2)cc1)C1CCN(Cc2nc3c(s2)CCCC3)CC1 | 9.8 (≈ 4.43 µg/mL)
15 | CN(C(=O)Cc1ccc(-n2cnnn2)cc1)[C@H]1CCN(Cc2ccc(C(F)(F)F)cc2)C[C@H]1F | 8.1 (≈ 3.86 µg/mL)
16 | CN(C(=O)Cc1ccc(S(C)(=O)=O)cc1)[C@@H]1CCN(Cc2nc3ccccc3s2)C[C@@H]1F | 9.1 (≈ 4.33 µg/mL)
17 | CCn1cc(NC(=O)Cc2ccc(Oc3ccnc4ccc(OC)cc34)cc2OC)cn1 | 7.1 (≈ 3.07 µg/mL)
18 | CCc1c[nH]nc1NC(=O)Cc1ccc(Oc2ccnc3cc(OC)ccc23)cc1OC | 7.4 (≈ 3.2 µg/mL)

Row | SMILES | solubility thermodynamic [µM]
19 | CCc1cc(NC(=O)Cc2ccc(Oc3ccnc4cc(OC)ccc34)cc2OC)n[nH]1 | 8.5 (≈ 3.68 µg/mL)
20 | COc1cc(Oc2ccnc3cc(OC)c(OC)cc23)ccc1CC(=O)Nc1cn(C)nc1C | 8.9 (≈ 4.12 µg/mL)
21 | CS(=O)(=O)Cc1cc(N2CCOCC2)nc(-c2ccc3[nH]ccc3c2)n1 | 9.3 (≈ 3.46 µg/mL)
22 | CC(C)Oc1cc(O[C@@H](C)Cc2ccccc2)cc(C(=O)Nc2ccc(C(=O)O)cn2)c1 | 9.1 (≈ 3.95 µg/mL)
23 | COc1cc2ncnc(Nc3cccc(Cl)c3F)c2cc1CN1CCCC[C@@H]1C(N)=O | 10 (≈ 4.44 µg/mL)
24 | CC(C)(C)OC(=O)N1C[C@@H]2CC[C@H]1CN2c1ncc(OCc2ccc(S(C)(=O)=O)cc2)cn1 | 7.1 (≈ 3.37 µg/mL)
25 | Cc1cc(C)cc(-c2[nH]c3sc(C(C)(C)C(=O)N4C5CCC4CC5)cc3c2CCN2CCC(N3CCOCC3)CC2)c1 | 7.2 (≈ 4.24 µg/mL)
26 | C[C@H](Oc1cccc2ncnc(Nc3ccc4c(cnn4Cc4cccc(F)c4)c3)c12)C(=O)N(C)C | 8.1 (≈ 3.92 µg/mL)
27 | C[C@@H](Oc1cccc2ncnc(Nc3ccc4c(cnn4Cc4cscn4)c3)c12)C(N)=O | 8.7 (≈ 3.88 µg/mL)
28 | CCc1cc(OCc2ccc(-c3ccccc3-c3nnn[nH]3)cc2)c2ccccc2n1 | 7.8 (≈ 3.18 µg/mL)
29 | O=C(N1CCC(c2ccncc2)CC1)N1CCN(S(=O)(=O)c2ccc(Cl)cc2)CC1 | 8.7 (≈ 3.91 µg/mL)
30 | COc1cc2c(Nc3c(Cl)ccc4c3OCO4)ncnc2cc1OCc1ccnc(C#N)c1 | 10.2 (≈ 4.71 µg/mL)
31 | C[C@@H](CN(C)C(=O)CO)Oc1cccc2ncnc(Nc3ccc(OCc4ccccn4)c(Cl)c3)c12 | 8.9 (≈ 4.52 µg/mL)
32 | Cc1cc(Nc2ncnc3[nH]nc(OCCN4CCC(O)CC4)c23)ccc1OCc1cccc(F)c1 | 6.8 (≈ 3.35 µg/mL)
33 | CC(C)Oc1cc(O[C@H](C)Cc2ccccc2)cc(C(=O)Nc2ccc(C(=O)O)cn2)c1 | 8.5 (≈ 3.69 µg/mL)
34 | Cc1ncc(-c2ccnc(Nc3ccc(N4CCN(S(C)(=O)=O)CC4)cc3)n2)n1C(C)C | 8.9 (≈ 4.05 µg/mL)
35 | CS(=O)(=O)Nc1cccc(Nc2nccc(Nc3c(Cl)ccc4c3OCO4)n2)c1 | 7.2 (≈ 3.12 µg/mL)
36 | COc1cc(Nc2cc(Oc3ccc(C)nc3C)ccn2)cc(OC)c1OC | 6.8 (≈ 2.59 µg/mL)
